Biological target: T1, Dopamine beta hydroxylase (Homo sapiens, UniProt P09172)
T1 construct: 125 μl of plasma; tissue Instituto Português do Sangue Transplantação; host or cells: human plasma from healthy donors
T1 sequence (P09172 40-617 limits assumed): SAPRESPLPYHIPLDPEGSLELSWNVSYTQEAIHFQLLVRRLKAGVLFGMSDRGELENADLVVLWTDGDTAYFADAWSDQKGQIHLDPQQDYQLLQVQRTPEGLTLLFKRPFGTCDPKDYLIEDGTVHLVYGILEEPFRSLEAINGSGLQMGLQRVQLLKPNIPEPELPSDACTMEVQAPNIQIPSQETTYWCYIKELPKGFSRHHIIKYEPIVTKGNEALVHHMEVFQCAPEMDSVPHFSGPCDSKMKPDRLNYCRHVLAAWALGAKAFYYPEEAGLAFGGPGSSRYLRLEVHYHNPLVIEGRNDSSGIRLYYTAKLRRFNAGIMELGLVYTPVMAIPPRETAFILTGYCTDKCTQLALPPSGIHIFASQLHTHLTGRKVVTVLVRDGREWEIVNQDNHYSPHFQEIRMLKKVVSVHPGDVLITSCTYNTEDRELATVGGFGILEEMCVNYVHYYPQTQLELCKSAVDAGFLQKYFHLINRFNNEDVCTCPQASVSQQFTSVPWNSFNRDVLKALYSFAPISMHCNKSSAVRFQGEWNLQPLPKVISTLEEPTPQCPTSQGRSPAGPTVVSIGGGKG
Assay: Dopamine beta hydroxylase activity in human plasma
Assay type: biochemical
Conditions: for Plasma (0.01 μM), activity in % of control: inhibitor 0.01 μM; for Plasma (0.1 μM), activity in % of control: inhibitor 0.1 μM
How it was run: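 Octopamine production from tyramine over 45 min at 37° C, measured photometrically at 330 nm after SCX extraction and periodate oxidation against an octopamine standard curve, indicates plasma DβH activity. Compounds tested at final 10, 100 and 1000 nM in human plasma, pH 5.0 cofactor buffer, 10 min preincubation; results as % of control.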

Plasma (0.01 μM), activity in % of control	Plasma (0.1 μM), activity in % of control	Compound
43.6 % of control	10.0 % of control	CN(C(=O)Cc1c2n(c(=S)n1C)C[C@@]1(c3c(F)ccc(Cl)c3F)C[C@@H]21)C1CCOC1 (stereo partly drawn) [Example 442, 2-((5aS,6aR)-5a-(3-chloro-2,6-difluorophenyl)-2-methyl-3-thioxo-2,3,5,5a,6,6a-hexahydrocyclopropa[3,4]pyrrolo[1,2-c]imidazol-1-yl)-N-methyl-N-(tetrahydrofuran-3-yl)acetamide]
59.2 % of control	11.5 % of control	CN(C(=O)Cc1c2n(c(=S)n1C)C[C@@]1(c3c(F)ccc(Cl)c3F)C[C@@H]21)C1CCOCC1 [Example 443, 2-((5aS,6aR)-5a-(3-chloro-2,6-difluorophenyl)-2-methyl-3-thioxo-2,3,5,5a,6,6a-hexahydrocyclopropa[3,4]pyrrolo[1,2-c]imidazol-1-yl)-N-methyl-N-(tetrahydro-2H-pyran-4-yl)acetamide]
73.5 % of control	57.7 % of control	Cn1c(CC(=O)N2CCCO2)c2n(c1=S)C[C@H](c1c(F)ccc(Cl)c1F)C2 [Example 444, (S)-2-(6-(3-chloro-2,6-difluorophenyl)-2-methyl-3-thioxo-2,5,6,7-tetrahydro-3H-pyrrolo[1,2-c]imidazol-1-yl)-1-(isoxazolidin-2-yl)ethan-1-one]
95.1 % of control	73.7 % of control	Cn1c(CC(=O)N2CCOCC2)c2n(c1=S)C[C@@H](c1c(F)cccc1F)C2 [Example 445, (R)-2-(6-(2,6-difluorophenyl)-2-methyl-3-thioxo-2,5,6,7-tetrahydro-3H-pyrrolo[1,2-c]imidazol-1-yl)-1-morpholinoethan-1-one]
83.0 % of control	62.9 % of control	Cn1c(CC(=O)N[C@@H]2CCOC2)c2n(c1=S)C[C@@H](c1c(F)cccc1F)C2 [Example 446, 2-((R)-6-(2,6-difluorophenyl)-2-methyl-3-thioxo-2,5,6,7-tetrahydro-3H-pyrrolo[1,2-c]imidazol-1-yl)-N—((R)-tetrahydrofuran-3-yl)acetamide]
94.4 % of control	33.2 % of control	Cn1c(CC(=O)NC2CCOCC2)c2n(c1=S)C[C@@H](c1c(F)cccc1F)C2 [Example 447, (R)-2-(6-(2,6-difluorophenyl)-2-methyl-3-thioxo-2,5,6,7-tetrahydro-3H-pyrrolo[1,2-c]imidazol-1-yl)-N-(tetrahydro-2H-pyran-4-yl)acetamide]
93.3 % of control	65.3 % of control	CN(C(=O)Cc1c2n(c(=S)n1C)C[C@@H](c1c(F)cccc1F)C2)C1COC1 [Example 448, (R)-2-(6-(2,6-difluorophenyl)-2-methyl-3-thioxo-2,5,6,7-tetrahydro-3H-pyrrolo[1,2-c]imidazol-1-yl)-N-methyl-N-(oxetan-3-yl)acetamide]
27.8 % of control	2.3 % of control	CN1C[C@@H](NC(=O)Cc2c3n(c(=S)n2C)C[C@H](c2c(F)ccc(Br)c2F)C3)CC1=O [Example 449, 2-((S)-6-(3-bromo-2,6-difluorophenyl)-2-methyl-3-thioxo-2,5,6,7-tetrahydro-3H-pyrrolo[1,2-c]imidazol-1-yl)-N—((S)-1-methyl-5-oxopyrrolidin-3-yl)acetamide]
32.6 % of control	2.3 % of control	Cn1c(CC(=O)N2CC[C@H](C#N)C2)c2n(c1=S)C[C@H](c1c(F)ccc(Br)c1F)C2 [Example 450, (S)-1-(2-((S)-6-(3-bromo-2,6-difluorophenyl)-2-methyl-3-thioxo-2,5,6,7-tetrahydro-3H-pyrrolo[1,2-c]imidazol-1-yl)acetyl)pyrrolidine-3-carbonitrile]
39.8 % of control	5.5 % of control	CN(C(=O)Cc1c2n(c(=S)n1C)C[C@H](c1c(F)ccc(Br)c1F)C2)[C@@H]1CCOC1 [Example 451, 2-((S)-6-(3-bromo-2,6-difluorophenyl)-2-methyl-3-thioxo-2,5,6,7-tetrahydro-3H-pyrrolo[1,2-c]imidazol-1-yl)-N-methyl-N—((R)-tetrahydrofuran-3-yl)acetamide]
49.6 % of control	12.8 % of control	CN(C)C(=O)C1CCN(C(=O)Cc2c3n(c(=S)n2C)C[C@H](c2c(F)ccc(Br)c2F)C3)CC1 [Example 452, (S)-1-(2-(6-(3-bromo-2,6-difluorophenyl)-2-methyl-3-thioxo-2,5,6,7-tetrahydro-3H-pyrrolo[1,2-c]imidazol-1-yl)acetyl)-N,N-dimethylpiperidine-4-carboxamide]
56.6 % of control	10.4 % of control	CN(C)C(=O)C1CCN(C(=O)Cc2c3n(c(=S)n2C)C[C@H](c2c(F)ccc(Br)c2F)C3)C1 (stereo partly drawn) [Example 453, 1-(2-((S)-6-(3-bromo-2,6-difluorophenyl)-2-methyl-3-thioxo-2,5,6,7-tetrahydro-3H-pyrrolo[1,2-c]imidazol-1-yl)acetyl)-N,N-dimethylpyrrolidine-3-carboxamide]
56.8 % of control	8.1 % of control	CN(C(=O)Cc1c2n(c(=S)n1C)C[C@H](c1c(F)ccc(Br)c1F)C2)C1COC1 [Example 454, (S)-2-(6-(3-bromo-2,6-difluorophenyl)-2-methyl-3-thioxo-2,5,6,7-tetrahydro-3H-pyrrolo[1,2-c]imidazol-1-yl)-N-methyl-N-(oxetan-3-yl)acetamide]
131.0 % of control	50.2 % of control	CN(C(=O)Cc1c2n(c(=S)n1C)C[C@@H](c1c(F)ccc(F)c1F)C2)[C@@H]1CCOC1 [Example 455, N-methyl-2-((R)-2-methyl-3-thioxo-6-(2,3,6-trifluorophenyl)-2,5,6,7-tetrahydro-3H-pyrrolo[1,2-c]imidazol-1-yl)-N—((R)-tetrahydrofuran-3-yl)acetamide]
86.8 % of control	20.2 % of control	Cn1c(CCO)c2n(c1=S)C[C@H](c1c(F)ccc(Br)c1F)C2 [Example 456, (S)-6-(3-bromo-2,6-difluorophenyl)-1-(2-hydroxyethyl)-2-methyl-2,5,6,7-tetrahydro-3H-pyrrolo[1,2-c]imidazole-3-thione]
42.1 % of control	7.3 % of control	CN1CC(NC(=O)Cc2c3n(c(=S)n2C)C[C@H](c2c(F)ccc(Br)c2F)C3)CCC1=O (stereo partly drawn) [Example 457, 2-((S)-6-(3-bromo-2,6-difluorophenyl)-2-methyl-3-thioxo-2,5,6,7-tetrahydro-3H-pyrrolo[1,2-c]imidazol-1-yl)-N-(1-methyl-6-oxopiperidin-3-yl)acetamide]
58.5 % of control	12.2 % of control	Cn1c(CC(=O)N2CCC(CF)C2)c2n(c1=S)C[C@H](c1c(F)ccc(Br)c1F)C2 (stereo partly drawn) [Example 458, 2-((S)-6-(3-bromo-2,6-difluorophenyl)-2-methyl-3-thioxo-2,5,6,7-tetrahydro-3H-pyrrolo[1,2-c]imidazol-1-yl)-1-(3-(fluoromethyl)pyrrolidin-1-yl)ethan-1-one]
65.6 % of control	13.5 % of control	Cn1c(CC(=O)N[C@H]2CCOC2)c2n(c1=S)C[C@H](c1c(F)ccc(Br)c1F)C2 [Example 459, 2-((S)-6-(3-bromo-2,6-difluorophenyl)-2-methyl-3-thioxo-2,5,6,7-tetrahydro-3H-pyrrolo[1,2-c]imidazol-1-yl)-N—((S)-tetrahydrofuran-3-yl)acetamide]
43.9 % of control	18.2 % of control	[2H]C([2H])([2H])n1c(CC(=O)N2CCOCC2)c2n(c1=S)C[C@H](c1c(F)ccc(Cl)c1F)C2 [Example 460, (S)-2-(6-(3-chloro-2,6-difluorophenyl)-2-(methyl-d)-3-thioxo-2,5,6,7-tetrahydro-3H-pyrrolo[1,2-c]imidazol-1-yl)-1-morpholinoethan-1-one]
45.6 % of control	6.9 % of control	[2H]C([2H])([2H])n1c(CC(=O)N[C@H]2CCOC2)c2n(c1=S)C[C@@]1(c3cc(Br)ccc3F)C[C@@H]21 [Example 461, 2-((5aS,6aR)-5a-(5-bromo-2-fluorophenyl)-2-(methyl-d)-3-thioxo-2,3,5,5a,6,6a-hexahydrocyclopropa[3,4]pyrrolo[1,2-c]imidazol-1-yl)-N—((S)-tetrahydrofuran-3-yl)acetamide]
